Reference: patent publication US20020052365A1, “Selective anxiolytic therapeutic agents” (priority 2000, published 2002)
Entries after “also recorded” stand apart in the source; their conditions may differ.

Tests used:
[1] = molecular target: diazepam-insensitive [3H]Ro15-4513 binding sites (α4 and α6 GABAA receptors); assay: [3H]Ro15-4513 binding to diazepam-insensitive sites, wild type mouse brain; details: n=3
[2] = molecular target: diazepam-insensitive [3H]Ro15-4513 binding sites in α2(H101R) mice; assay: [3H]Ro15-4513 binding to diazepam-insensitive sites, α2(H101R) mouse brain; details: n=3
[3] = molecular target: diazepam-insensitive [3H]Ro15-4513 binding sites in α3(H126R) mice; assay: [3H]Ro15-4513 binding to diazepam-insensitive sites, α3(H126R) mouse brain; details: n=3
[4] = test system: GABAA receptors in hippocampal pyramidal cells from wild type mice; assay: Patch-clamp GABA responses in cultured hippocampal pyramidal cells, wild type; type: cell-based, mouse
Protocol: (§1) FIGS. 2A-C. […] The holding potential in the patch-clamp analysis was −60 mV the chloride concentration symmetrical. GABA was applied for 5 sec. Hippocampal neurons from E16.5 embryos were cultured for 10-14 days.

[5] = test system: GABAA receptors in hippocampal pyramidal cells from α2(H101R) mice; assay: Patch-clamp GABA responses in cultured hippocampal pyramidal cells, α2(H101R); type: cell-based, mouse
Protocol: as §1

[6] = test system: recombinant α2(H101R)β3γ2 receptors; details: recombinant α2(H101R)β3γ2 in HEK-293 cells; cited from earlier work
[7] = molecular target: T1, α2 subunits from α2(H101R) mice (Mus musculus, UniProt P22723+P26048, H129R); assay: Diazepam affinity by [3H]Ro15-4513 binding after immunoprecipitation with α2 subunit-specific antiserum; details: immunoprecipitated
T1 construct: from tissue; host or cells: brain of α2(H101R) knock-in mice
Excerpt: (§2) To distinguish between the pharmacology of α2 and α3 receptor subtypes, two mouse lines were generated in which a point mutation was introduced into homologous positions of the α2 subunit gene [α2(H101R)]

[8] = molecular target: T2, α3 subunits from α3(H126R) mice (Mus musculus, UniProt P22723+P26049, H154R); assay: Diazepam affinity by [3H]Ro15-4513 binding after immunoprecipitation with α3 subunit-specific antiserum; details: immunoprecipitated
T2 construct: from tissue; host or cells: brain of α3(H126R) knock-in mice
Excerpt: as §2

[9] = test system: wild type, α2(H101R) and α3(H126R) mice; assay: Locomotor activity; type: in vivo, mouse; details: diazepam 3, 10, 30 mg/kg p.o., 30 min prior
Protocol: (§3) V, vehicle. […] 31:733. Locomotor activity was automatically recorded for 30 min.

[10] = test system: wild type, α2(H101R) and α3(H126R) mice; assay: Pentylenetetrazole test; type: in vivo, mouse; details: pentylenetetrazole 120 mg/kg ip, diazepam 3, 10, 30 mg/kg p.o.
Protocol: as §3
Following pentylenetetrazole treatment (120 mg/kg ip), occurrence and/or latency to tonic seizures was recorded for a maximum of 10 minutes in wild type and mutant mice. […].

[11] = test system: wild type, α2(H101R) and α3(H126R) mice; assay: Light/dark choice test; type: in vivo, mouse; details: for time in the lit area: sodium phenobarbital 15 mg/kg s.c., n=6-8
Protocol: (§4) FIG. 4A: Light/dark choice test. […] FIGS. 4B-C: Elevated plus-maze. […] FIG. 4D: Light/dark choice test. […] FIGS. 4E-F: Elevated plus-maze. […] Results are given as means ±S.E.M.+, P<0.05;++, P<0.01;+++P<0.001 (Dunnett's or Fisher's pair-wise post-hoc comparisons or Fisher's exact tests). […] The light-dark choice test was carried out as described infra with an illumination of 500 lux. […] The elevated plus-maze was performed as described infra under an indirect dim light illumination (<10 lux).
In a chamber containing an interconnected dark and lit (500 lux) box, the behavior of wild-type and mutant mice was tested for 5 min following the first entry into the dark compartment. […] The time spent in the lit box was recorded.
(§5) Female wild-type and mutant mice were raised in the test rooms and behaviorally tested during the dark period of the 1 2-hr light/dark cycle.

[12] = test system: wild type, α2(H101R) and α3(H126R) mice; assay: Elevated plus-maze; type: in vivo, mouse; details: diazepam 2 mg/kg p.o.
Protocol: as §4
Mice were placed on an elevated crossbar with two walled and two open arms under indirect dim illumination. […] The time spent on the open arms and the number of open arm entries was recorded for 5 minutes.
as §5

[13] = test system: wild type and α1-GABAA receptor (H101R) mice; assay: Withdrawal after chronic diazepam and flumazenil administration; details: chronic diazepam then flumazenil

T2 sequence (P26049 29-492 H154R): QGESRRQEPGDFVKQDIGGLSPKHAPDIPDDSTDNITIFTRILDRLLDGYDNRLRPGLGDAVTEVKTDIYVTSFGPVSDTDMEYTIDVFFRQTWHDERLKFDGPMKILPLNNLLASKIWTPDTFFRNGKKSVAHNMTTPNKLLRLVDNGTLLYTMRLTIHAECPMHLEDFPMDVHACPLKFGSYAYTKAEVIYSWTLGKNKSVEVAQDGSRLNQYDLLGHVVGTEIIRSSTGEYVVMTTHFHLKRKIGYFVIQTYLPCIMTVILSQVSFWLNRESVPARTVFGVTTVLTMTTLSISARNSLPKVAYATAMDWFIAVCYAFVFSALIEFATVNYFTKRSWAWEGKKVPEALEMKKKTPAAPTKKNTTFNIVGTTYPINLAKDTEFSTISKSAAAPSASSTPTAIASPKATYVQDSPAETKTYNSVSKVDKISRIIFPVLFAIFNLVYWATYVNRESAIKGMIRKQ
T2 sequence (P22723 39-474): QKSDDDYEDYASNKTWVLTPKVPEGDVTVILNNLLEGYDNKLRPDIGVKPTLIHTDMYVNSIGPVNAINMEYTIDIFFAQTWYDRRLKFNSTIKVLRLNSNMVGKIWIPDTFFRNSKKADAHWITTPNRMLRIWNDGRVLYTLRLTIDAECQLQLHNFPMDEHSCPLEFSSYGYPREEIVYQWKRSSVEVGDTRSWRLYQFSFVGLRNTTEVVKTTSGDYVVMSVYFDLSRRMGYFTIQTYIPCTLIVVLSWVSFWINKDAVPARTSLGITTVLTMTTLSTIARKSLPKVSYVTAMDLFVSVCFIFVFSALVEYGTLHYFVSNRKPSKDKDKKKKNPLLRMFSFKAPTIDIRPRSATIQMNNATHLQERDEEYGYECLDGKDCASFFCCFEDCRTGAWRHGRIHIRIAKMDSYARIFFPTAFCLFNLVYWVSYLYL
T2 sequence (P63080 26-473 partner): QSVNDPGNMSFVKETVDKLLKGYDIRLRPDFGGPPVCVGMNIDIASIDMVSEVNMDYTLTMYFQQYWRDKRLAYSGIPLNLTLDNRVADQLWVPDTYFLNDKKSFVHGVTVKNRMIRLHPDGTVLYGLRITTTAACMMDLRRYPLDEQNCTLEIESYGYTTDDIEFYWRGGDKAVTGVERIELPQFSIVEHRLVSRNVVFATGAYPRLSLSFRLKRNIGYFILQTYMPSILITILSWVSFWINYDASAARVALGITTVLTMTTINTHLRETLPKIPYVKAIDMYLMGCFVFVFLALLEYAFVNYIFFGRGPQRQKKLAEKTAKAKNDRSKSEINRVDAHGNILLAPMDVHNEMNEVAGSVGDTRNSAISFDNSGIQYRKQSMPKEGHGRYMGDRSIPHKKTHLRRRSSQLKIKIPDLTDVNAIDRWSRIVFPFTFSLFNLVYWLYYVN
T1 sequence (P26048 29-451 H129R): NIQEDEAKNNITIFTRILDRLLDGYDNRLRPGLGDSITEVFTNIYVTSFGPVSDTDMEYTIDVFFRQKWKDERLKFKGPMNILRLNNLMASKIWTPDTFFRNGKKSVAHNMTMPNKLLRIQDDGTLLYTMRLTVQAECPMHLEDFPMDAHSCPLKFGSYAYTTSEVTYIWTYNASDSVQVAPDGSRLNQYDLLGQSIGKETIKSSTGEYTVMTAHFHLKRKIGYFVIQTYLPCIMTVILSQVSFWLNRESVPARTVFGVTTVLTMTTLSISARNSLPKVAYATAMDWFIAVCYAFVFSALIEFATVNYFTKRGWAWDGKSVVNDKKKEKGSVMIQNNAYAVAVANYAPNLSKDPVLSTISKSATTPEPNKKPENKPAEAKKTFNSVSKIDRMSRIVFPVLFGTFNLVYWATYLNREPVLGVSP
T1 sequence (P22723 39-474): as the sequence (P22723 39-474) above
T1 sequence (P63080 26-473 partner): as the sequence (P63080 26-473 partner) above

CCOC(=O)c1ncn2c1CN(C)C(=O)c1cc(N=[N+]=[N-])ccc1-2 [Ro15-4513]
Kd ([1]; α2 wild type controls): 4.3 ± 0.8 nM | Kd ([1]; α3 wild type controls): 4.9 ± 2.1 nM | Kd [2]: 8 ± 1.3 nM | Kd [3]: 6.5 ± 1.6 nM | modulation of GABA response by Ro15-4513 (inverse agonistic action) ([4]; Ro15-4513 1μM, n=13): −39±5.2% | modulation of GABA response by Ro15-4513 (agonistic response) ([5]; Ro15-4513 1μM, n=23): 11.7±7.5% | efficacy of Ro15-4513 [6]: from inverse agonism to agonism

CN1C(=O)CN=C(c2ccccc2)c2cc(Cl)ccc21 [diazepam]
decrease in the affinity for diazepam [7]: more than 1,000 fold | decrease in the affinity for diazepam [8]: more than 1,000 fold | potentiation of GABA response by diazepam ([4]; diazepam 1μM, GABA 3 μM, n=18): 48.1±7.9% | potentiation of GABA response by diazepam ([5]; diazepam 1μM, GABA 3 μM, n=29): 17.6±4.5% | locomotor activity (sedative action) [9]: Dose-dependent inhibition of locomotor activity | percentage of mice developing tonic convulsions (anticonvulsant action) ([10]; wild type mice): Dose-dependent decrease of the percentage of mice developing tonic convulsions | percentage of mice developing tonic convulsions (anticonvulsant action) ([10]; α2(H101R) mice): not impaired; also recorded: Dose-dependent decrease of the percentage of mice developing tonic convulsions | percentage of mice developing tonic convulsions (anticonvulsant action) ([10]; α3(H126R) mice): not impaired; also recorded: Dose-dependent decrease of the percentage of mice developing tonic convulsions | time spent in the lit area ([11]; wild type mice, diazepam 0.5, 1, 2 mg/kg p.o.): dose-dependently increased the time spent in the lit area | time spent in the lit area ([11]; α2(H101R) mice, diazepam up to 2 mg/kg p.o.): did not increase the time spent in the lit area | time spent in the lit area ([11]; α3(H126R) mice, diazepam 0.5, 1, 2 mg/kg p.o.): Dose-dependent increase in the time spent in the lit area | entries on the open arms ([12]; wild type mice): increased | percentage of time spent on the open arms ([12]; wild type mice): increased | entries on the open arms ([12]; α2(H101R) mice): failed to increase | percentage of time spent on the open arms ([12]; α2(H101R) mice): failed to increase | entries on the open arms ([12]; α3(H126R) mice): increased | percentage of time spent on the open arms ([12]; α3(H126R) mice): increased | withdrawal symptoms (locomotor activity) ([13]; wild type mice): exhibited withdrawal symptoms | withdrawal symptoms (locomotor activity) ([13]; α1-GABAA receptor (H101R) mice): greatly reduced

CCC1(c2ccccc2)C(=O)NC(=O)NC1=O [phenobarbital, Sodium phenobarbital]
time in the lit area ([11]; wild type mice): 111.75 s | time in the lit area ([11]; α2(H101R) mice): 110.9 s
